According to patent US20110293745A1, “AURORA KINASE INHIBITORS” (SUNESIS PHARMACEUTICALS, INC., priority 2008, published 2011):

Legend:
[1] = Clinical pharmacokinetic evaluation, 3-hour infusion; assay type: in vivo, human
Method: Pharmacokinetic (PK) evaluation was performed on Days 1 and 15.

[2] = Rising dose pharmacokinetics (exposure, gender); assay type: in vivo, rats; conditions: for clearance / half-life / Vd: Sprague-Dawley, plasma, iv
Excerpt: (§1) Pharmacokinetic parameters were estimated using noncompartmental analysis within WinNonlin v. 4.1. […] For rising dose experiments measuring exposure for each species, sets containing several animals were singly dosed at a given dose.

[3] = Bioavailability profile, IV, IP and PO; assay type: in vivo, mice; conditions: for F: mice, 50 mg/kg Compound 1, bioavailability
Excerpt: as §1, with “dose. […] Abbreviations are as in Table 18; F is fraction of dose absorbed.” for “dose.”

[4] = test system: MiaPaca2; assay: Cell Proliferation ELISA, BrdU; assay type: cell-based; conditions: Homo sapiens, MIA PaCa-2; MiaPaca2 (Pancreatic), 96 hr
Method: Cellular proliferation was assessed using the Cell Proliferation ELISA, bromodeoxyuridine (BrdU) kit (Roche) including reagents, according to the kit protocol.

[5] = test system: pHH3 in HT-29; assay: cells; conditions: Homo sapiens, HT-29, 1 h, read-out: pHH3 IC50
[6] = test system: HCT 116 tumor xenograft; assay: Microscopy of tumor sections (Caspase-3, H&E); assay type: in vivo, mouse; conditions: 170 mg/kg twice-weekly for three weeks
Method: The studies in Examples 20, 21, and 22 used female mice nu/nu athymic mice. Compound 1 was formulated fresh each week for dosing.
HCT 116 colorectal carcinoma cells were implanted in the animals' right hind flanks subcutaneously with 200 μL of a 2.5×10^7 cells/mL suspension [1:1 Dulbecco's PBS (DPBS) with cells:Matrigel™. For each of the studies of compound distribution, pHH3 levels, and tumor section microscopy, after the tumors reached an average volume of 500 mm^3, the animals were weighed and sorted into randomized groups before initial dosing. Dosing schedules are provided separately for each of the studies in Examples 28, 29, and 30.
Following the treatment, tumors were harvested, placed in Streck fixative, paraffin embedded, sectioned, and transferred to slides. Tumor sections were stained with hematoxylin and eosin (H&E). Hematoxylin stains negatively charged nucleic acid structures, such as nuclei and ribosomes, blue, whereas eosin stains proteins pink. Treatments were administered on Day 1, 4, 8, 11, 15, and 18, with tumors being excised Day 4, 11, 18, and 25 of the study. All images in this Figure were taken at 40× magnification.

[7] = molecular target: T1, Flt4 (Homo sapiens, UniProt P35916); assay: Radiometric kinase assay (Upstate panel); assay type: biochemical
T1 construct: purchased Upstate Biotechnology, Dundee, UK
T1 sequence (P35916 25-1363): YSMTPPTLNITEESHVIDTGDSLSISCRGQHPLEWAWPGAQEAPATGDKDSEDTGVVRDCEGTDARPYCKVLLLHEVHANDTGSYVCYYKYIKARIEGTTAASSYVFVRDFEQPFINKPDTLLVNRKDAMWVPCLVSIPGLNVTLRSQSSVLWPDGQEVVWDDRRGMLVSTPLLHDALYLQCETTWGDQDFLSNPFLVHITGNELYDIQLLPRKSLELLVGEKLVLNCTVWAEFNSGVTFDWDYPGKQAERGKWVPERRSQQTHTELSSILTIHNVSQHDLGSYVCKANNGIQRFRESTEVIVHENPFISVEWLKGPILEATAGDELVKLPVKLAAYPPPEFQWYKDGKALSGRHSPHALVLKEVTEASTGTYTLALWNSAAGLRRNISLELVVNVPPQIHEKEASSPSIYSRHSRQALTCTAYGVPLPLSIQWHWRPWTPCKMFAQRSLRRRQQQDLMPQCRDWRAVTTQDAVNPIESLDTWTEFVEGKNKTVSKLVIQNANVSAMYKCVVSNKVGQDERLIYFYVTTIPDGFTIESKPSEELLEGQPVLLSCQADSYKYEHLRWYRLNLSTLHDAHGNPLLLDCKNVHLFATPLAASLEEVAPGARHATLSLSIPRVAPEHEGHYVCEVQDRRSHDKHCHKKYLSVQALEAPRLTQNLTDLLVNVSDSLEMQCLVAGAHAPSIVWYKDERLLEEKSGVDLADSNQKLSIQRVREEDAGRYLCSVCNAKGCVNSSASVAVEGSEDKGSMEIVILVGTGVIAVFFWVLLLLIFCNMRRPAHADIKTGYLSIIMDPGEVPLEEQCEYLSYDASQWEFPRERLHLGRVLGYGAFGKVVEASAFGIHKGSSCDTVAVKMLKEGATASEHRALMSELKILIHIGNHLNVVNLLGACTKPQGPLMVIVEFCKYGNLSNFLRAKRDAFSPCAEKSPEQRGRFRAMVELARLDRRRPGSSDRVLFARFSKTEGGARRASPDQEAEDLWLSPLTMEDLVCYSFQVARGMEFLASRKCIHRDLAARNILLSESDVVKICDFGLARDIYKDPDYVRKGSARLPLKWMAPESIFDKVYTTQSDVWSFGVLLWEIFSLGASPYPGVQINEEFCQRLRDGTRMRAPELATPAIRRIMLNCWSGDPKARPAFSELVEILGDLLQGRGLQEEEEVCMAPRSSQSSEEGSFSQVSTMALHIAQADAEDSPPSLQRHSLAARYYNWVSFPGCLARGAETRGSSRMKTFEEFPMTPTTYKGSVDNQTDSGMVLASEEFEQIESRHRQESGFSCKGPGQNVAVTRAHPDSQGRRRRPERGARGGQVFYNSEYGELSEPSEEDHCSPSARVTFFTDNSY

[8] = test system: A375; assay: cells; conditions: Homo sapiens, A-375, 16 h, read-out: Cell Cycle EC50
Method: (§2) Cells were fixed, stained, and analyzed. The percentage of cells with ≧4N DNA content as a function of concentration was fit to estimate EC50. For cell cycle analysis on nonadherent cells or cells with irregular morphology (A2780, HL-60, CCRF-CEM, and HT-29), tumor cells were seeded in 12-well tissue culture plates overnight at 37° C. […] Cells were trypsinized, collected, stained with propidium iodide, and analyzed by flow cytometry.

[9] = test system: H1299; assay: cells; conditions: Homo sapiens, NCI-H1299, 16 h, read-out: Cell Cycle EC50
Method: as §2

[10] = test system: A2780; assay: cells; conditions: Homo sapiens, A2780, 16 h, read-out: Cell Cycle EC50
Method: as §2

[11] = test system: Calu-6; assay: cells; conditions: Homo sapiens, Calu-6, 16 h, read-out: Cell Cycle EC50
Method: as §2

[12] = test system: PC3; assay: cells; conditions: Homo sapiens, PC-3, 16 h, read-out: Cell Cycle EC50
Method: as §2

[13] = test system: HCT116; assay: cells; conditions: Homo sapiens, HCT-116, 16 h, read-out: Cell Cycle EC50
Method: as §2

[14] = test system: HeLa; assay: cells; conditions: Homo sapiens, 16 h, read-out: Cell Cycle EC50
Method: as §2

[15] = test system: CCRF-CEM; assay: cells; conditions: Homo sapiens, 16 h, read-out: Cell Cycle EC50
Method: as §2

[16] = test system: HL-60; assay: cells; conditions: Homo sapiens, HL-60, 16 h, read-out: Cell Cycle EC50
Method: as §2

[17] = test system: MDA-MB-231; assay: cells; conditions: Homo sapiens, MDA-MB-231, 16 h, read-out: Cell Cycle EC50
Method: as §2

[18] = test system: H1299 non-small cell lung cancer xenograft; assay: In vivo efficacy, mouse xenograft; conditions: H1299 (NSCLC)
Method: Percent TGI is then calculated with the following equation: […]
Time To Endpoint (TTE) was calculated for each individual animal to reach the predetermined study end point where the tumor volume becomes 1200 mm^3 or 10% of body weight or a greater than 20% body weight loss for two sequential measurements. The TTE is calculated and the median value is recorded for the group. Tumor Growth Delay (TGD) is then calculated with the following equation: […]
H1299 non-small cell lung cancer cells [200 μL of a 5×10^7 cells/mL suspension (1:1 DPBS with cells:Matrigel)] were implanted subcutaneously in the right hind flank. After 10 days, when tumors reached an average volume of approximately 100 mm^3, animals were weighed, randomized by tumor volume (l×w×h×0.52), and assigned to the various study groups before initial dosing.

[19] = CD-1, mouse, plasma, ip, 50 mg/kg
[20] = CD-1, mouse, plasma, iv, 50 mg/kg
[21] = CD-1, mouse, plasma, po, 50 mg/kg

With `O=C(Nc1cccc(Cl)c1)Nc1ncc(CCNc2ncnc3ccsc23)s1` [Compound 2, 1-(3-chlorophenyl)-3-{5-[2-(thieno[3,2-d]pyrimidin-4-ylamino)ethyl]thiazol-2-yl}-urea] the “disposition following repeated administration” value ([1]; first versus third weekly dose) was “no change in Compound 2 disposition”, the half-life ([1]; human, plasma, intravenous, patients, weekly 3-hour infusion, Days 1 and 15, read-out: terminal half-life (converted)) was 7 h and the clearance ([1]; patients) was “moderate to low”. For the same compound, the clearance ([2]; 60 mg/m2, rat, 60 mg/m^2) was 17.2 mL/min/kg, the half-life ([2]; 60 mg/m2, rat, 60 mg/m^2) was 1.4 h and the Vd ([2]; 60 mg/m2, rat, 60 mg/m^2, read-out: Vss) was 1.3 L/kg. It also gave a clearance ([2]; 300 mg/m2, rat, 300 mg/m^2) of 4 mL/min/kg, a half-life ([2]; 300 mg/m2, rat, 300 mg/m^2) of 1.7 h and a Vd ([2]; 300 mg/m2, rat, 300 mg/m^2, read-out: Vss) of 1.1 L/kg. The clearance ([2]; 600 mg/m2, rat, 600 mg/m^2) was 2 mL/min/kg, the half-life ([2]; 600 mg/m2, rat, 600 mg/m^2) was 5.9 h and the Vd ([2]; 600 mg/m2, rat, 600 mg/m^2, read-out: Vss) was 1.1 L/kg. The “dose dependence of systemic exposure (AUC)” value ([2]; most pronounced in rats and mice, lesser extent in dogs) was “non-linear systemic exposure”, the AUC(0-inf) [3, 19] was 46200 ng·h/mL and the half-life [3, 19] was 0.7 h. It also gave an AUC(0-inf) [3, 20] of 43600 ng·h/mL, a C0 [3, 20] of 42000 ng/mL and a clearance [3, 20] of 19.1 mL/min/kg. The half-life [3, 20] was 0.8 h, the Vd ([3]; CD-1, mouse, plasma, iv, 50 mg/kg, read-out: Vss) was 1.2 L/kg and the AUC(0-inf) [3, 21] was 28300 ng·h/mL. It also gave a half-life [3, 21] of 3.3 h, an F ([3]; IP) of 106% and an F ([3]; PO) of 65%.

In the case of `CS(=O)(=O)O.O=C(Nc1cccc(Cl)c1)Nc1ncc(CCNc2ncnc3ccsc23)s1` [Compound 1, 1-(3-chlorophenyl)-3-{5-[2-(thieno[3,2-d]pyrimidin-4-ylamino)ethyl]thiazo}-urea], the IC50 [4] is reported as 9.1 nM, the IC50 [5] is reported as 60 nM and the “large polyploid cells in tumor” value [6] is reported as “appeared by Day 4 and persisted for at least 25 days”. For the same compound, the “caspase-3 positive cells in tumor versus vehicle” value ([6]; up to 18 days) was “significant increase”, the IC50 [7] was 0.014 µM and the EC50 [8] was 93 nM. The EC50 [9] was 80 nM, the EC50 [10] was 6.1 nM and the EC50 [11] was 13 nM. For the same compound, the EC50 [12] was 11 nM, the EC50 [13] was 34 nM and the EC50 [14] was 290 nM. It also gave an EC50 [15] of 4.2 nM, an EC50 [16] of 7 nM and an EC50 [17] of 30 nM. For the same compound, the “% TGI” value ([18]; 42.5 mg/kg biw × 3) was 0%, the TGD ([18]; 42.5 mg/kg biw × 3) was 0 days and the “% TGI” value ([18]; 85 mg/kg biw × 3) was 17.7%. For the same compound, the TGD ([18]; 85 mg/kg biw × 3) was 0 days, the “% TGI” value ([18]; 170 mg/kg biw × 3) was 69.1% and the TGD ([18]; 170 mg/kg biw × 3) was 5.7 days.
